“And” between values parts separate entries of the source, which are not always exact repeats. Identical values can stand only once.
Key:
[1] = test system: Dark Agauti (DA) pigmented rats; assay: Effect of topical ethosuximide on intraocular pressure in rats (Tono-Pen); format: in vivo; conditions: for IOP, treated eye (T), individual rats: one value per rat; for IOP, treated eye (T), Average X: rats
Description: Preliminary ocular pharmacodynamic studies were conducted to study the effect of ethosuximide on the intraocular pressure in rats by measuring IOP before and after administration of ethosuximide. IOP measurements were taken by a tonopen instrument. Ethosuximide was applied as a viscous solution obtained from Petnidan® capsules (Desitin, Hamburg, Germany). A recent study at Alcon Research laboratory (Pang I H, Wang W H, Clark A F: Acute effects of glaucoma medications on rat intraocular pressure, Exp Eye Res 2005, February; 80(2)207-14) has shown rats to be a proper animal model for glaucoma study. Another study at the Casey Eye Institute (Moore C G, Milne S T, Morrison J C: Noninvasive measurements of rat intraocular pressure with the Tono-Pen. Invest. Opthalmol. Vis. Sci. 1993 February; 34(2)363-9) has shown that a tonopen can be used reliably to measure IOP in normal rat eye.
Six Dark Agauti (DA) pigmented rats, (250-300 g in weight) were slightly sedated with 1.5-2 mg (0.15-0.2 ml) of intraperitoneal xylazine. One eye of each rat was randomly selected to receive topical administration of 50 µl of 250 mg/0.2 ml ethosuximide solution (content of Petnidan capsules). The second (control) eye received 50 µl of viscoelastic solution without the active ingredient (Viscotears™ manufactured by Novartis, Switzerland). At t=0 (immediately before) and at 30, 60 and 120 minutes after administration, topical anesthetic benoxinate was applied to both eyes and the intraocular pressures (IOP) were measured by a Tono-Pen XL tonometer (Medtronics). IOP values were recorded as the mean value of 6-10 successive measurements to minimize variability. The code, namely which eye of a pair was treated, was unknown to the technician who performed the IOP measurements. One rat expired after 1 hour due to excessive sedation. Five rats completed the experiment. In 2 out of 6 eyes that received the drug (vs. 1 of 6 eyes that were administered viscoelastic vehicle) a mild to moderate limbal vascular congestion was noticed, which tended to subside at 60 minutes.
At the end of the experiment, the code was broken and the IOP values in control and treated eyes were compared by statistical analysis.

[2] = test system: normo-tensive New Zealand White (NZW) rabbits; assay: Effect of topical ethosuximide on intraocular pressure in rabbits (Tono-Pen); format: in vivo; conditions: for IOP, treated eye (T), individual rabbits: one value per rabbit
Description: Another study was conducted, in order to study the effect of ethosuximide on the intraocular pressure in rabbits by measuring IOP before and after administration of ethosuximide. IOP measurements were taken by a tonopen instrument. Ethosuximide was applied as a viscous solution obtained from Petnidan® capsules (Desitin, Hamburg, Germany).
Five fully awake, normo-tensive New Zealand White (NZW) rabbits, (each approximately 3.0 kg in weight) were used in this study. One eye of each rabbit was randomly selected to receive topical administration of 50 μl of 250 mg/0.2 ml ethosuximide solution (content of Petnidan capsules). The second (control) eye received 50 μl of viscoelastic solution without the active ingredient (Viscotears™ manufactured by Novartis, Switzerland). At t=0 (baseline, immediately before) and at 0.5, 1, 2, 4 and 6 hours after administration, topical anesthetic benoxinate was applied to both eyes and the intraocular pressures were measured by a Tono-Pen XL tonometer (Medtronics). IOP values were recorded as the mean value of 6-10 successive measurements to minimize variability. The code, namely which eye of a pair was treated, was (unknown to the technician who performed the IOP measurements. In 3 out of 5 eyes that received the drug (vs. 1 of 5 eyes that were administered viscoelastic vehicle) a mild to moderate limbal vascular congestion was noticed, which tended to subside at 60 minutes. In one treated eye the congestion persisted for two hours. At the end of the experiment, the code was broken and the IOP values in control and treated eyes were compared. The results are summarized in Table 2.

[3] = 60 min after topical administration
[4] = 120 min after topical administration

eyes with mild to moderate limbal vascular congestion ([1]; rat eyes that received the drug (vs. 1 of 6 vehicle eyes), tended to subside at 60 minutes): 2 out of 6
eyes with mild to moderate limbal vascular congestion ([2]; rabbit eyes that received the drug (vs. 1 of 5 vehicle eyes), tended to subside at 60 minutes): 3 out of 5
treated eyes in which the congestion persisted for two hours ([2]; rabbits): one
Compound: CCC1(C)CC(=O)NC1=O (centres unmarked) [ethosuximide]
IOP, treated eye (T), individual rats ([1]; 30 min after topical 50 ul of 250 mg/0.2 ml ethosuximide solution): 17 mmHg and 16 mmHg and 15 mmHg and 15.3 mmHg and 20.5 mmHg and 22 mmHg
IOP, treated eye (T), Average X ([1]; 30 min after topical administration): 17.6 mmHg
IOP, treated eye (T), individual rats [1, 3]: 21.3 mmHg (2×) and 30 mmHg and 18 mmHg and 14.6 mmHg
IOP, treated eye (T), Average X [1, 3]: 21.0 mmHg
IOP, treated eye (T), individual rats [1, 4]: 22 mmHg and 17 mmHg and 19 mmHg and 20.5 mmHg and 20.2 mmHg
IOP, treated eye (T), Average X [1, 4]: 19.7 mmHg
IOP, treated eye (T), individual rabbits ([2]; 0.5 hour after topical 50 μl of 250 mg/0.2 ml ethosuximide solution): 17.3 mmHg and 18.3 mmHg and 16.3 mmHg and 19.7 mmHg and 20.0 mmHg
IOP, treated eye (T), Mean ([2]; 0.5 hour, rabbits): 18.3 mmHg
IOP, treated eye (T), individual rabbits ([2]; 1 hour after topical administration): 12.8 mmHg and 16.0 mmHg and 15.0 mmHg and 19.7 mmHg and 18.5 mmHg
Δ IOP, difference in mean IOP (T − C) ([2]; 1 hour, p .557): −0.6 mmHg
IOP, treated eye (T), Mean ([2]; 1 hour, rabbits): 16.0 mmHg
IOP, treated eye (T), individual rabbits ([2]; 2 hours after topical administration): 17.3 mmHg and 20.0 mmHg and 19.6 mmHg and 16.3 mmHg and 19.8 mmHg
Δ IOP vs t = o, mean IOP of treated eyes ([2]; 2 hours versus baseline, p .420): −1.4 mmHg
IOP, treated eye (T), Mean ([2]; 2 hours, rabbits): 18.6 mmHg
IOP, treated eye (T), individual rabbits ([2]; 4 hours after topical administration): 15.5 mmHg and 15.8 mmHg and 13.0 mmHg and 12.5 mmHg and 17.5 mmHg
IOP, treated eye (T), Mean ([2]; 4 hours, rabbits): 14.9 mmHg
IOP, treated eye (T), individual rabbits ([2]; 6 hours after topical administration): 19.5 mmHg and 20.0 mmHg and 13.5 mmHg and 19.4 mmHg and 16.0 mmHg
Δ IOP vs t = o, mean IOP of treated eyes ([2]; 6 hours versus baseline, p .404): −2.3 mmHg
Δ IOP, difference in mean IOP (T − C) ([2]; 6 hours, p .920): +0.1 mmHg
IOP, treated eye (T), Mean ([2]; 6 hours, rabbits): 17.7 mmHg
